Reference: patent US8691761B2, “Somatostatin receptor 2 antagonists” (priority 2006, dated 2014)
Like-named read-outs stand apart in the source and are kept apart here. Bridge positions count the residues as written; N and C are the ends. Square brackets hold non-standard residues; d marks the D form. Peptide text beside a SMILES is read from it. * marks the point of attachment. ξ: configuration not given here. Phe(4-NO2) = N[C@@H](Cc1ccc([N+](=O)[O-])cc1)C(=O)O; dPhe(4-NHCONH2) = NC(=O)Nc1ccc(C[C@@H](N)C(=O)O)cc1; Phe(4-Cl) = N[C@@H](Cc1ccc(Cl)cc1)C(=O)O; ξDihydroorotoyl = O=C1CC(C(=O)*)NC(=O)N1; 2Nal = N[C@@H](Cc1ccc2ccccc2c1)C(=O)O; ξPhe(4-NH2) = Nc1ccc(CC(N)C(=O)O)cc1

What was measured:
sst2 = sst2 (Homo sapiens, UniProt P30874); test: Calcium release assay in HEK-sst2 cells (Fluo-4NW); assay type: cell-based; design: expressed in transfected cells; host or cells: HEK293 (HEK-sst2); settings: n ≧ 2
Method: Calcium release assay. Intracellular calcium release was measured in HEK-sst2 using the Fluo-4NW Calcium Assay kit as described previously (Magrys, et al. “The role of anti-alpha-enolase autoantibodies in pathogenicity of autoimmune-mediated retinopathy.” J. Clin. Immunol. 2007, 27, 181-192; Michel et al. “The Nef protein of human immunodeficiency virus is a broad-spectrum modulator of chemokine receptor cell surface levels that acts independently of classical motifs for receptor endocytosis and Galphai signaling.” Mol. Biol. Cell. 2006, 17, 3578-3590). In brief, HEK-sst2 cells were seeded (25,000 cells per well) in poly-D-lysine (20 μg/mL) coated 96 well plates and cultured for 1 day at 37° C. and 5% CO2 in culture medium. At the day of the experiment, the cells were washed with assay buffer (1×HBSS, 20 mM HEPES) containing 2.5 mM probenecid, and then loaded with 100 μL/well Fluo-4NW dye in assay buffer containing 2.5 mM probenecid for 30 min at 37° C. and 5% CO2 and then for further 30 min at room temperature. To measure the intracellular calcium mobilization after stimulation with the SRIF analogues to be tested, the dye-loaded cells were transferred to a SpectraMax M2^e (Molecular Devices, Sunnyvale, Calif.). Intracellular calcium mobilization was recorded in a kinetic for 60 sec at room temperature monitoring fluorescence emission at 520 nm (with λex=485 nm) in the presence of the analogues at the concentrations indicated. Maximum fluorescence (Fmax) was measured after the addition of 25 μM ionomycin. Baseline (control) measurements were taken for dye-loaded, untreated cells. Data are shown as percentage of Fmax (% Fmax) as reported previously. (Magrys, et al. J. Clin. Immunol. 2007, 27, 181-192; Michel et al. Mol. Biol. Cell. 2006, 17, 3578-3590). All experiments were repeated at least three times in triplicate.

hSSTR1 = biological target: T1, hSSTR1 (Homo sapiens, UniProt P30872); test: Receptor autoradiography, displacement of 125I-[Leu8,D-Trp22,Tyr25]-SRIF-28 from membrane pellet sections; assay type: binding
T1 construct: expressed in transfected cells; host or cells: CHO-K1 or CCL39 cells
Method: (§1) Generally, recombinant cells expressing the receptor are washed and homogenized to prepare a crude protein homogenate in a suitable buffer. In a typical assay, an amount of protein from the cell homogenate is placed into a small volume of an appropriate assay buffer at an appropriate pH. Candidate substances, such as potential SRIF agonists and antagonists, are added to the admixture in convenient concentrations, and the interaction between the candidate substance and the receptor polypeptide is monitored.
(§2) In vitro Bioassay: The effects of the various somatostatin analogs were tested in vitro for their ability to bind to isolated cloned receptors expressed on CHO-K1 cells and CCL39 cells. The molecular cloning of the genes encoding multiple somatostatin receptor subtypes permitted the individual expression of these receptors in mammalian cells and the characterization of their respective pharmacological profiles.
(§3) CHO-K1 cells were grown in Ham's F-12 medium, and CCL39 cells were grown in Dulbecco's modified Eagle's medium/Ham's F-12(1:1) mix, supplemented with 10% fetal bovine serum, 100 U/ml penicillin and 100 μg/ml streptomycin, in humidified air containing 5% CO2 at 37° C. Cells were washed twice with and scraped into ice-cold 0.05 M Tris-HCl (pH 7.4), collected by centrifugation, and homogenized using a rotor/stator/system in the same buffer. After centrifugation at 120 g for 5 min at 4° C., the supernatant was collected and centrifuged again at 48,000 g for 30 min at 4° C. The resulting pellet was resuspended in ice-cold Tris buffer, transferred into a microfuge tube, and centrifuged at 20,000 g for 15 min at 4° C. After withdrawal of the supernatant, the membrane pellet was stored at −80° C.
(§4) Receptor autoradiography was performed on 20 μm thick cryostat sections of the membrane pellets, mounted on microscope slides, and then stored at −20° C. […] Increasing concentrations of the unlabeled peptide were used ranging from 0.1-1000 nM. […] IC50 values were calculated after quantification of the data using a computer-assisted image processing system as known in this art.
(§5) The numbers in parentheses indicate the number of times the particular binding test was carried out.
(§6) Receptor autoradiography. Cell membrane pellets were prepared as previously described, and stored at −80° C. Receptor autoradiography was performed on 20-μm thick cryostat (Microm HM 500, Walldorf, Germany) sections of the membrane pellets, mounted on microscope slides, and then stored at −20° C. […] After a brief dip in distilled water to remove excess salts, the sections were dried quickly and exposed for 1 week to Kodak BioMax MR film. IC50 values were calculated after quantification of the data using a computer-assisted image processing system as described previously. […] (Reubi, J. C. “In vitro identification of vasoactive intestinal peptide receptors in human tumors: Implications for tumor imaging.” J. Nucl. Med. 1995, 36, 1846-1853).
(§7) To investigate their ssts binding properties, the peptides were tested for their ability to bind to cryostat sections from membrane pellets of cells expressing the five human ssts (Table 3).

hSSTR4 = biological target: T2, hSSTR4 (Homo sapiens, UniProt P31391); test: as above; assay type: binding
T2 construct: expressed in transfected cells; host or cells: CHO-K1 or CCL39 cells
Method: as §1, §2, §3, §4, §5, §6, §7

hSSTR5 = biological target: T3, hSSTR5 (Homo sapiens, UniProt P35346); test: as above; assay type: binding
T3 construct: expressed in transfected cells; host or cells: CHO-K1 or CCL39 cells
Method: as §1, §2, §3, §4, §5, §6, §7

hSSTR3 = biological target: T4, hSSTR3 (Homo sapiens, UniProt P32745); test: as above; assay type: binding
T4 construct: expressed in transfected cells; host or cells: CHO-K1 or CCL39 cells
Method: as §1, §2, §3, §4, §5, §6, §7

hSSTR2 = biological target: T5, hSSTR2 (Homo sapiens, UniProt P30874); test: as above; assay type: binding
T5 construct: expressed in transfected cells; host or cells: CHO-K1 or CCL39 cells
Method: as §1, §2, §3, §4, §5, §6, §7

human sst2A receptor = biological target: T6, human sst2A receptor (Homo sapiens, UniProt P30874); test: Immunofluorescence-based sst2 internalization assay in HEK-sst2 cells; assay type: cell-based; settings: for sst2-internalization tested in vitro in HEK-sst2 cells (function): n ≧ 2
T6 construct: expressed in transfected cells; host or cells: HEK293 (HEK-sst2)
Method: Immunofluorescence-based sst2 Internalization Assay. Immunofluorescence microscopy-based internalization assay for sst2 was performed with HEK-sst2 using the sst2-specific antibody R2-88 as described elsewhere herein. HEK-sst2 cells were treated either with vehicle alone, the sst2 agonist [Tyr^3]-octreotide at a concentration of 100 nM, [Tyr^3]-octreotide at a concentration of 100 nM in the presence of an excess of the SRIF analogues to be tested (100 times the concentration of [Tyr^3]-octreotide), or with the SRIF analogues to be tested alone at a concentration of 10 μM, and then processed for immunofluorescence microscopy as described previously.

[1] = Table 3, mean ± SEM when N ≧ 3, read-out: sst1 binding affinity (IC50)
[2] = Table 3, mean ± SEM when N ≧ 3, read-out: sst4 binding affinity (IC50)
[3] = Table 3, mean ± SEM when N ≧ 3, read-out: sst5 binding affinity (IC50)
[4] = Table 3, mean ± SEM when N ≧ 3, read-out: sst3 binding affinity (IC50)
[5] = Table 3, mean ± SEM when N ≧ 3, read-out: sst2 binding affinity (IC50)

T1 sequence (P30872 whole entry): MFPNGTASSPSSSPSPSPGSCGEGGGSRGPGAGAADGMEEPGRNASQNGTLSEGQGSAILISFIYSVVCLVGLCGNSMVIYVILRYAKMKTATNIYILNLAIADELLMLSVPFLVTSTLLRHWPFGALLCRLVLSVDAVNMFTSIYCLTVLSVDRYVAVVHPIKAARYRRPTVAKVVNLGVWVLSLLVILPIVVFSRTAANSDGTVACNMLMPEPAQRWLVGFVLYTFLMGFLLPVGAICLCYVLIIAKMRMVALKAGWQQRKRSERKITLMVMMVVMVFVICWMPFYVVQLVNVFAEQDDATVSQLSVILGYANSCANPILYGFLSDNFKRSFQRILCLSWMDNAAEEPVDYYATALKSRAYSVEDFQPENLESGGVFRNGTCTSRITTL
T6 sequence (P30874 whole entry): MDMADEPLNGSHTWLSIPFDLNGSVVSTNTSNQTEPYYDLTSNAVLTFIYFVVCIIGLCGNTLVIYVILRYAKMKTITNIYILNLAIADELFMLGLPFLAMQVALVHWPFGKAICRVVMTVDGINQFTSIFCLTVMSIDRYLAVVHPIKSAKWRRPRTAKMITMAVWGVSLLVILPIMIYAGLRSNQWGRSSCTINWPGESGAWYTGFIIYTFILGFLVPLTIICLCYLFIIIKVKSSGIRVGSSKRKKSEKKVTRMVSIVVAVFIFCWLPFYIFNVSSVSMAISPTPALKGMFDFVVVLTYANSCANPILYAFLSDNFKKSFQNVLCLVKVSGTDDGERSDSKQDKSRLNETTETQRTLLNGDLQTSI
T5 sequence (P30874 whole entry): as above
sst2, sequence (P30874 whole entry): as above
T2 sequence (P31391 whole entry): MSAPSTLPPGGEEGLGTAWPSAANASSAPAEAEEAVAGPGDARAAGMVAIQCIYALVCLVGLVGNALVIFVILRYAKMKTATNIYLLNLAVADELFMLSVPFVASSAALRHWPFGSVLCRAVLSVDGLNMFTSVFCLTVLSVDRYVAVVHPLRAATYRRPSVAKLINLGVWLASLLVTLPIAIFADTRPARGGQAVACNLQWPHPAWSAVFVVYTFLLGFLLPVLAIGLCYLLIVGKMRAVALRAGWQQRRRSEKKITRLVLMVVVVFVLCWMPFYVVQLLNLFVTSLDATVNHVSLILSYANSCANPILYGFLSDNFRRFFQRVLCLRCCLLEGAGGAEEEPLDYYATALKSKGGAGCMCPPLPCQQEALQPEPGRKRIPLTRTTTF
T3 sequence (P35346 whole entry): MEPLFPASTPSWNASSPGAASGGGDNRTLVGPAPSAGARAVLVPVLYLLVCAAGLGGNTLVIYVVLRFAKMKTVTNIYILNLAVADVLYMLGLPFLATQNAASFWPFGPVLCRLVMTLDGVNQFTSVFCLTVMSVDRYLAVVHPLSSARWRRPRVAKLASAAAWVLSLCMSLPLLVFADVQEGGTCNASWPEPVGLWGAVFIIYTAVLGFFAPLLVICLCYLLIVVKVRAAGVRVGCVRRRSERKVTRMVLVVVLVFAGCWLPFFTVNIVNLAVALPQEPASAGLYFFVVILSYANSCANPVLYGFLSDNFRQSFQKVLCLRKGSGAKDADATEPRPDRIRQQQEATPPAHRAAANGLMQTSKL
T4 sequence (P32745 whole entry): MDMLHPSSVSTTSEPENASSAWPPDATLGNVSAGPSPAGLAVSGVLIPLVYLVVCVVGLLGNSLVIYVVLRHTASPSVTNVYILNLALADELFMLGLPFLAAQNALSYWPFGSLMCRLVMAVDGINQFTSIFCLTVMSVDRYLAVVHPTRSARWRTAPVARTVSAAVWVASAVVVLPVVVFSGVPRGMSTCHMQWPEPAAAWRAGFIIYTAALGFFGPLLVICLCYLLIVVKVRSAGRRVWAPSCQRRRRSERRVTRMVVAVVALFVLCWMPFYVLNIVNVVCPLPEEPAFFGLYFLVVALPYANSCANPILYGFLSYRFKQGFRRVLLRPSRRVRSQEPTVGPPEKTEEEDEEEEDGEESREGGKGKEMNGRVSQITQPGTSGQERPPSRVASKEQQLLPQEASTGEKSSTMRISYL

C[C@@H](O)[C@@H]1NC(=O)[C@H](CCCCN)NC(=O)[C@@H](Cc2c[nH]c3ccccc23)NC(=O)[C@H](Cc2ccc(NC(N)=O)cc2)NC(=O)[C@H](NC(=O)[C@H](Cc2ccc(Cl)cc2)NC(=O)CN2CCN(CC(=O)O)CCN(CC(=O)O)CCN(CC(=O)O)CC2)CSSC[C@@H](C(=O)N[C@@H](Cc2ccc3ccccc3c2)C(N)=O)NC1=O [Peptide No. 14, DOTA-Cpa-c[DCys-Aph(Cbm)-DTrp-Lys-Thr-Cys]-2Nal-NH2]
Calcium release tested in vitro in HEK-sst2 cells (function) (sst2): Antagonist | IC50 (hSSTR1; Table 1, inhibition of radioligand binding to cloned human receptor, read-out: IC50 hSSTR1): > 1000 nM | IC50 (hSSTR1; [1]): > 1000 nM | IC50 (hSSTR4; Table 1, inhibition of radioligand binding to cloned human receptor, read-out: IC50 hSSTR4): 816 ± 114 nM | IC50 (hSSTR4; [2]): 831 ± 82 nM | IC50 (hSSTR5; Table 1, inhibition of radioligand binding to cloned human receptor, read-out: IC50 hSSTR5): > 1000 nM | IC50 (hSSTR5; [3]): > 1000 nM | IC50 (hSSTR3; Table 1, inhibition of radioligand binding to cloned human receptor, read-out: IC50 hSSTR3): > 1000 nM | IC50 (hSSTR3; [4]): 972 ± 212 nM | IC50 (hSSTR2; Table 1, inhibition of radioligand binding to cloned human receptor, read-out: IC50 hSSTR2): 9.4 ± 1.6 nM | IC50 (hSSTR2; [5]): 9.8 ± 1.2 nM | sst2-internalization tested in vitro in HEK-sst2 cells (function) (human sst2A receptor): Antagonist

CC(=O)N[C@@H](Cc1ccc([N+](=O)[O-])cc1)C(=O)N[C@@H]1CSSC[C@@H](C(=O)N[C@H](Cc2ccc(O)cc2)C(N)=O)NC(=O)[C@H]([C@@H](C)O)NC(=O)[C@H](CCCCN)NC(=O)[C@@H](Cc2c[nH]c3ccccc23)NC(=O)[C@H](Cc2ccc(O)cc2)NC1=O [compound 1, Ac-pNO2Phe-c[DCys-Tyr-DTrp-Lys-Thr-Cys]-DTyr-NH2, reference compound]
IC50 (hSSTR3; [4]): > 1000 nM | sst2-internalization tested in vitro in HEK-sst2 cells (function) (human sst2A receptor): Antagonist

C[C@@H](O)[C@@H]1NC(=O)[C@H](CCCCN)NC(=O)[C@@H](Cc2ccc(NC(N)=O)cc2)NC(=O)[C@H](Cc2ccc(O)cc2)NC(=O)[C@H](NC(=O)[C@@H](N)Cc2ccc([N+](=O)[O-])cc2)CSSC[C@@H](C(=O)N[C@@H](Cc2ccc3ccccc3c2)C(N)=O)NC1=O [compound 4, H2N-pNO2Phe-c[DCys-Tyr-DAph(Cbm)-Lys-Thr-Cys]-2Nal-NH2] (H-[Phe(4-NO2)][dC]Y[dPhe(4-NHCONH2)]KTC[2Nal]-NH2; disulfide 2-7)
IC50 (hSSTR1; [1]): > 1000 nM | IC50 (hSSTR4; [2]): > 1000 nM | IC50 (hSSTR5; [3]): > 1000 nM | IC50 (hSSTR3; [4]): 384 nM | IC50 (hSSTR2; [5]): 2.6 nM | sst2-internalization tested in vitro in HEK-sst2 cells (function) (human sst2A receptor): Antagonist

C[C@@H](O)[C@@H]1NC(=O)[C@H](CCCCN)NC(=O)[C@@H](Cc2c[nH]c3ccccc23)NC(=O)[C@H](N(C)C(=O)c2ccccc2)NC(=O)[C@H](NC(=O)[C@@H](N)Cc2ccc(Cl)cc2)CSSC[C@@H](C(=O)N[C@@H](Cc2ccc3ccccc3c2)C(N)=O)NC1=O [compound 9, H2N-Cpa-c[DCys-L-Agl(NMe.benzoyl)-DTrp-Lys-Thr-Cys]-2Nal-NH2]
loss of binding affinity for sst2 as compared to 7 (hSSTR2): 3 fold | sst2-internalization tested in vitro in HEK-sst2 cells (function) (human sst2A receptor): Antagonist

C[C@@H](O)[C@@H]1NC(=O)[C@H](CCCCN)NC(=O)[C@@H](Cc2c[nH]c3ccccc23)NC(=O)[C@H](Cc2ccc(NC(N)=O)cc2)NC(=O)[C@H](NC(=O)[C@@H](N)Cc2ccc(Cl)cc2)CSSC[C@@H](C(=O)N[C@@H](Cc2ccc3ccccc3c2)C(N)=O)NC1=O [compound 12, H2N-Cpa-c[DCys-Aph(Cbm)-DTrp-Lys-Thr-Cys]-2Nal-NH2]
Calcium release tested in vitro in HEK-sst2 cells (function) (sst2): Antagonist | sst2-internalization tested in vitro in HEK-sst2 cells (function) (human sst2A receptor): Antagonist

C[C@@H](O)[C@@H]1NC(=O)[C@H](CCCCN)NC(=O)[C@@H](Cc2c[nH]c3ccccc23)NC(=O)[C@H](Cc2ccc(NC(N)=O)cc2)NC(=O)[C@H](NC(=O)[C@H](Cc2ccc(Cl)cc2)NC(=O)CCOCCOCCOCCNC(=O)CN2CCN(CC(=O)O)CCN(CC(=O)O)CCN(CC(=O)O)CC2)CSSC[C@@H](C(=O)N[C@@H](Cc2ccc3ccccc3c2)C(N)=O)NC1=O [compound 16, DOTA-Peg-Cpa-c[DCys-Aph(Cbm)-DTrp-Lys-Thr-Cys]-2Nal-NH2]
sst2-internalization tested in vitro in HEK-sst2 cells (function) (human sst2A receptor): Antagonist

C[C@@H](O)[C@@H]1NC(=O)[C@H](CCCCN)NC(=O)[C@@H](Cc2ccc(NC(N)=O)cc2)NC(=O)C(Cc2ccc(NC(=O)C3CC(=O)NC(=O)N3)cc2)NC(=O)[C@H](NC(=O)[C@@H](N)Cc2ccc(Cl)cc2)CSSC[C@@H](C(=O)N[C@@H](Cc2ccc3ccccc3c2)C(N)=O)NC1=O (stereo partly drawn) [compound 29, H2N-Cpa-c[DCys-Aph(Hor)-DAph(Cbm)-Lys-Thr-Cys]-2Nal-NH2] (H-[Phe(4-Cl)][dC][ξPhe(4-NH2)](ξDihydroorotoyl)[dPhe(4-NHCONH2)]KTC[2Nal]-NH2; disulfide 2-7)
Calcium release tested in vitro in HEK-sst2 cells (function) (sst2): Antagonist | sst2-internalization tested in vitro in HEK-sst2 cells (function) (human sst2A receptor): Antagonist

[Tyr^3]-octreotide [reference compound]
Calcium release tested in vitro in HEK-sst2 cells (function) (sst2): agonistic effect | sst2 internalization, given alone (human sst2A receptor; FIG. 2, antagonists at 10 μM): can induce sst2 internalization
